For data set [1], the target named is T1, Homo sapiens triosephosphate isomerase (HsTIM) (Homo sapiens, UniProt P60174).
T1 construct: made in house; host or cells: Escherichia coli
Briefly: Enzymatic activity of TIM, coupled enzyme assay. In kind it is biochemical. As to the method:
(§1) R. microplus triosephosphate isomerase (RmTIM) and Homo sapiens triosephosphate isomerase (HsTIM) were expressed in Escherichia coli, and purified as previously described in the literature. Protein concentration was determined by absorbance measurements at 280 nm for RmTIM (ε = 33440 M^−1cm^−1) and HsTIM (ε = 33460 M^−1cm^−1). Enzymatic activity was determined following the reaction of the conversion of glyceraldehyde-3-phosphate to dihydroxyacetone phosphate in a coupled enzyme assay using α-glycerol-phosphate dehydrogenase. The decrease in absorbance at 340 nm was recorded in a multiplate reader Varioskan™ Flash Multimode Reader (Thermo Scientific^TM, Waltham, MA, USA) at 25 °C. The reaction mixture ([…], pH 7.4) contained 100 mM triethanolamine, 10 mM EDTA, 0.2 mM NADH, 1 mM glyceraldehyde-3-phosphate, and 0.9 units of α-glycerol-phosphate dehydrogenase. The reaction was initiated by the addition of 5 ng/mL of the TIM of interest. For the inhibition studies (incubation mixture), TIM was incubated at a concentration of 5 mg/mL in a buffer of pH 7.4 containing 100 mM triethanolamine, 10 mM EDTA, and 10% DMSO at 25 °C for 1 h. The mixture also contained the compounds, dissolved in DMSO, at final concentrations of 10 and 100 μM. After 1 h, 10 μL of the incubation mixture was added to the reaction mixture, to a final volume of 100 μL in a 96-well plate. None of the molecules tested here affected the activity of α-glycerol-phosphate dehydrogenase (checked in situ on the reaction mixture inhibited, with the addition of fresh α-glycerol-phosphate dehydrogenase and running the measurement again). The IC50 value was taken as the concentration of drug needed to reduce the enzymatic activity by 50%, and was analyzed using OriginLab 8.5 Corporation, Northampton, MA, USA, sigmoidal regression (% of enzymatic activity vs. the logarithm of the compound concentration). The tests were performed in triplicate in two independent experiments.

Data set [2] addresses R. microplus triosephosphate isomerase (RmTIM) (Rhipicephalus microplus, UniProt A8B3A8). Nature of the data set: biochemical. Particulars: for IC50: RmTIM, read-out: IC50. As to the method: as §1
For another data set, the system named is R. microplus. Briefly: Acaricidal activity on R. microplus (LIT and AIT, overall statement). Particulars: LIT 1 mM and AIT 1.5 mM. The data set is classed as in vivo. As to the method:
After immersion, the fully engorged females were lightly dried with absorbent paper. […] The tubes carrying the eggs were closed with hydrophilic cotton, and were returned to the incubator chamber under the same conditions until the eggs hatched. The reproductive efficacy, as well as % control of each compound on R. microplus, was calculated according to published reports. The results were verified in two independent experiments. This assay was performed based on the method of Castro-Janer et al., 2011. […] The tubes were incubated in the same conditions as described above. The larvae were ready for testing after 14 to 21 days from egg-hatching. For the test, the compounds were diluted in DMSO, and were later resuspended in distilled water, always using 15% DMSO of the final solution volume. […] For the immersion procedure, tubes containing the larvae were placed vertically, without the cotton plug, and the larvae were taken with a brush from the top of the tube, ensuring they were viable. A cluster with a diameter of 2 mm of larvae was collected with a brush, and was later immersed in each solution, as well as in both control solutions, for 10 min. After this time, the solutions were drained, and the larvae were placed in 8.5 cm × 7.5 cm Whatman No. 1 filter papers. The filters were folded in the middle of the 8.5 cm side, and closed with 3 bulldog clips, forming packets. These packets were incubated for 24 h, under the same conditions as described previously, and then the percent of mortality was determined, considering it as the % of the control.

In data set [3] the test system is J774.1 murine macrophages. Nature of the data set: Cytotoxicity assay on murine macrophages (MTT). The data set is classed as cell-based. Particulars: for EC50: read-out: EC50 (µM) for Mammalian Cells. As to the method:
J774.1 murine macrophages (ATCC, Rockville, MD, USA) were grown in a DMEM culture medium containing 4 mM L-glutamine, and supplemented with 10% FCS. The cells were seeded into a 96-well plate (5 × 10^4 cells in 200 µL culture medium) and incubated at 37 °C in a 5% CO2 atmosphere for 48 h, to allow cell adhesion before drug testing. Afterward, the cells were exposed for 48 h to the compounds (25–400 μM) or the vehicle (0.4% DMSO), and additional controls (cells in medium) were used in each test. Cell viability was then assessed by measuring the mitochondria-dependent reduction of MTT to formazan: for this, MTT in sterile PBS (0.2% glucose), pH 7.4, was added to the macrophages, to a final concentration of 0.1 mg/mL, and the cells were then incubated at 37 °C for 3 h. After removing the medium, the formazan crystals were dissolved in 180 μL of DMSO and 20 μL of MTT buffer (0.1 M glycine, 0.1 M NaCl, 0.5 mM EDTA, pH 10.5), and the absorbance was measured at 560 nm. The IC50 was defined as the drug concentration at which 50% of the cells were viable, relative to the control (no drug added), and was determined by analysis using OriginLab 8.5 Corporation, Northampton, MA, USA, sigmoidal regression (% of viable cells compared to the logarithm of the compound concentration). The tests were performed in triplicate in two independent experiments.

Data set [4] has as its system embryonic cell line BME26. Nature of the data set: Phenotypic screening on BME26 cell cultures (MTT viability). Particulars: for inhibition at 100 µM: synthetic compounds at 100 μM, BME26, 24 h, read-out: % of Growth Inhibition. The data set is classed as cell-based, R. microplus. As to the method:
The embryonic cell line BME26 from R. microplus (Centro de Biotecnologia, Universidade Federal do Rio Grande do Sul, Porto Alegre, RS, Brazil) was grown as adherent monolayers in a complete medium, as described previously, which consisted of L-15B300 medium supplemented with 5% heat-inactivated Fetal Bovine Serum (FBS) (Gibco Co., Grand Island, NY), 10% Tryptose Phosphate Broth (TPB) (BD), penicillin (100 U/mL), streptomycin ([…], Gibco Co., Grand Island, NY, USA), and 0.1% bovine lipoprotein concentrate (ICN), (pH 7.2). The suspension of embryonic BME26 cells from R. microplus was seeded into 24-well plates (5 × 10^5 cells/well) to a final volume of 500 μL in a complete medium, and allowed to attach. After 24 h incubation at 34 °C, the extracts (100 µg/mL final concentration) and the compounds were added to the final concentrations indicated (1–100 µM), and 0.05% dimethylsulfoxide (DMSO) was used in the negative control wells. After 24 h of treatment, 50 μL of 3-(4,5-dimethylthiazol-2-yl)-2,5-diphenyltetrazolium bromide (MTT) prepared in serum-free medium (5 mg/mL) was added to each well. The media were discarded after 2 additional hours of incubation, and 1 mL of acid-isopropyl alcohol (0.15% HCl in isopropyl alcohol) was added to dissolve the formazan crystals. The mixture was transferred to 1.5 mL tubes, centrifuged at 6000× g for 15 min, and the clear supernatant was collected in new tubes for absorbance measurement at 570 nm using quartz cuvettes in a UVmini-1240 UV–vis spectrophotometer (Shimadzu, Japan). Absorbance values of the control treatment were used for normalization (100% viability). The activity was determined by analysis using OriginLab8.5® sigmoidal regression (% of viable cells compared to the logarithm of the compound concentration). The half-maximal inhibitory concentration (IC50), defined as the drug concentration at which 50% of the cells were viable relative to the control (no drug added), was used as a measurement of activity. These experiments were performed in triplicate for each compound.

The test system of data set [5] is R. microplus (Mozo strain) larvae. Nature of the data set: Larval Immersion Test (LIT). The data set is classed as in vivo. As to the method: This assay was performed based on the method of Castro-Janer et al., 2011. Fully engorged females of R. microplus (Mozo strain) were incubated in Petri dishes at 27 °C and 85–90% relative humidity for 14 days. […] The tubes were incubated in the same conditions as described above. The larvae were ready for testing after 14 to 21 days from egg-hatching. For the test, the compounds were diluted in DMSO, and were later resuspended in distilled water, always using 15% DMSO of the final solution volume. The concentrations for the different compounds for the final immersion solution are 1 mg/mL for the extracts, and 1 mM for the compounds. […] For the immersion procedure, tubes containing the larvae were placed vertically, without the cotton plug, and the larvae were taken with a brush from the top of the tube, ensuring they were viable. A cluster with a diameter of 2 mm of larvae was collected with a brush, and was later immersed in each solution, as well as in both control solutions, for 10 min. After this time, the solutions were drained, and the larvae were placed in 8.5 cm × 7.5 cm Whatman No. 1 filter papers. The filters were folded in the middle of the 8.5 cm side, and closed with 3 bulldog clips, forming packets. These packets were incubated for 24 h, under the same conditions as described previously, and then the percent of mortality was determined, considering it as the % of the control.

Where [6] appears, read: 1 h incubation, read-out: % Inhibition of Enzymatic Activity of RmTIM.
Where [7] appears, read: Mus musculus, J774.1, cytotoxicity.

What is called inhibition is the change of the read-out against control, counted positive when it falls. Broadly, the IC50 is the concentration that gives 50% inhibition. For orientation: EC50 means the concentration giving half of the maximal effect.

Like-named read-outs stand apart in the source and are kept apart here. Marks after values point to notes of the source that are not given here. Some results are limits rather than exact numbers.

T1 sequence (P60174 whole entry): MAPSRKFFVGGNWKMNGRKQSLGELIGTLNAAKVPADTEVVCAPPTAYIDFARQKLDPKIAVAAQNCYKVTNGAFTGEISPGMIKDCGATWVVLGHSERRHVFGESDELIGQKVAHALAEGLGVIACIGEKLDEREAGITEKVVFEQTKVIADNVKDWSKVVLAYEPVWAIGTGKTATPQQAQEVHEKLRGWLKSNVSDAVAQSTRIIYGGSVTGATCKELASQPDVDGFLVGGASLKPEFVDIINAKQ
Chain of R. microplus triosephosphate isomerase (RmTIM) (A8B3A8 entry or part of it): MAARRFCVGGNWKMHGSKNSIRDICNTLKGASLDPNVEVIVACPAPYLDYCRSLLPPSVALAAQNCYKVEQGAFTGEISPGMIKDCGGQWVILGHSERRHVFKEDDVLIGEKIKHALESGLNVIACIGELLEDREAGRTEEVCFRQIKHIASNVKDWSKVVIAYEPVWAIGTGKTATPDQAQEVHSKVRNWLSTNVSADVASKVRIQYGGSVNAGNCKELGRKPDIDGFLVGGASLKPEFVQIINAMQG

With `O=C(N/N=C/C=C/c1ccco1)c1ccccn1` [compound 1367], the inhibition at 10 µM in data set [1] stood at 0%; in data set [2] (setting [6]), 82%. Moreover, in data set [2], the IC50 is less than 10 µM. In addition, in the data set on R. microplus, the “acaricidal activity (in words)” value is given as “did not show reproducible acaricidal activity”. In addition, in data set [3] (setting [7]), the EC50 was greater than 50 µM.

Turning to `O=C1/C(=C2\Nc3ccccc3C2=O)Nc2ccccc21` [compound 879], the inhibition at 10 µM in data set [1] was found to be 0%; in data set [2] (setting [6]), 95%. Also, the IC50 in data set [2] is less than 10 µM. Also, the inhibition at 100 µM in data set [4] came to 9%. For the same compound, the “acaricidal activity (in words)” value in the data set with R. microplus is listed as “did not show reproducible acaricidal activity”. The EC50 in data set [3] (setting [7]) is greater than 50 µM.

As to `O=C1/C(=C/c2ccccc2)CCC/C1=C\c1ccccc1` [compound 799], the inhibition at 10 µM in data set [1] came out at 0%; in data set [2] (setting [6]), 88%. Besides, in data set [2], the IC50 was less than 10 µM. In the data set with R. microplus, the “acaricidal activity (in words)” value is on record as “did not show reproducible acaricidal activity”. In data set [3] (setting [7]), the EC50 was greater than 50 µM.

As to Ivermectin [reference compound], the “% of Mortality LIT” value in data set [5] (commercial ivermectin control at 0.082 mM) turned out to be 100%.

For the compound `Cc1c(/C=C/C(=O)c2ccccc2O)no[n+]1[O-]` [compound 1253], the IC50 in data set [4] (BME26 cells, 24 h, MTT, read-out: IC50) is 12 ± 1 µM; in data set [3] (Mus musculus, J774.1, 48 h, read-out: IC50 (µM) Mammalian Cells), greater than 50 µM. Further, the inhibition at 100 µM in data set [4] worked out at 95%. In addition, the “acaricidal activity (in words)” value with R. microplus was “acaricidal potential”. Further, in data set [5] (compounds 1.0 mM, 10 min immersion, 24 h), the “% of Mortality LIT” value worked out at 50 ± 8%.

Regarding `COc1cc(/C=C/C(=O)CC(=O)/C=C/[c-]2cccc2)ccc1O.[Fe+2].c1cc[cH-]c1` [Mar105, [(1E,6E)-7-(4-hydroxy-3-methoxyphenyl)-3,5-dioxo-1,6-heptadien-1-yl]ferrocene], in data set [1], the “% Inhibition of Enzymatic Activity of HsTIM at 10 µM” value is on record as 0%. Further, in data set [2], the IC50 was determined as 10 ± 1 µM. In addition, the “acaricidal activity (in words)” value with R. microplus was “did not show reproducible acaricidal activity”. Further, the EC50 in data set [3] (cytotoxicity) was greater than 25 µM.

As to `O=C(/C=C/c1ccsc1)/C=C/c1ccsc1` [compound 1387], the inhibition at 10 µM in data set [1] stood at 0%; in data set [2] (setting [6]), 100%. Further, in data set [2], the half-maximal inhibitory concentration (IC50) was less than 10 µM. The “acaricidal activity (in words)” value in the data set with R. microplus was “did not show reproducible acaricidal activity”. The EC50 in data set [3] (setting [7]) is greater than 50 µM.

As for `COc1cc(/C=C/c2cc(/C=C/[c-]3cccc3)[nH]n2)ccc1O.[Fe+2].c1cc[cH-]c1` [Mar106, 2-Methoxy-4-((E)-2-(5-((E)-ferrocenylvinyl)-1H-pyrazol-3-yl)vinyl)phenol], the “% Inhibition of Enzymatic Activity of HsTIM at 10 µM” value in data set [1] is 0%. Besides, the IC50 in data set [2] turned out to be 25 ± 4 µM. Also, the “% Inhibition of Enzymatic Activity of RmTIM” value in data set [2] (at 100 µM (**), 1 h incubation) is reported as 69 ** %. In addition, the “acaricidal activity (in words)” value in the data set with R. microplus is “did not show reproducible acaricidal activity”. The EC50 in data set [3] (cytotoxicity) is greater than 25 µM.

On to `Clc1ccc(-c2csc(/N=C/C=C/c3ccco3)n2)cc1` [compound 910], for which 10 µM produced 0% inhibition in data set [1]. Also, the concentration for half-maximal inhibition (IC50) in data set [2] worked out at 23 ± 2 µM. In addition, the inhibition at 100 µM in data set [2] (at 100 µM (**), 1 h incubation, read-out: % Inhibition of Enzymatic Activity of RmTIM) turned out to be 60%. In addition, the “acaricidal activity (in words)” value in the data set on R. microplus is listed as “did not show reproducible acaricidal activity”. In data set [3] (setting [7]), the EC50 is greater than 50 µM.

(Values after paper PMC9781803, “Phenotypic and Target-Directed Screening Yields New Acaricidal Alternatives for the Control of Ticks” (Molecules, 2022).)
